Reference: patent US20240327415A1, “Multicomponent Complexes, Including Salts, Crystalline Forms, and Hydrates and Solvates of ENT1 Inhibitors” (iTeos Belgium SA, priority 2023, published 2024)
Counter-ions that a name gives are not always drawn.

Assay: solid form screen of Compound 1 di(hydrogen sulfate), XRPD damp and dried (Example 1)
Type: physicochemical
Protocol: Example 1—Solid Form Screen of Compound 1 Di(Hydrogen Sulfate): Amorphous Compound 1 di(hydrogen sulfate) (made in accordance with Example 7) was prepared and then subject to various crystallization techniques—temperature cycling, evaporation, crash cooling, solvent drop grinding, anti-solvent addition—each of which is described in more detail below. In addition, a reactive crystallization experiment was also conducted on Compound 1, which is a free base.
Temperature Cycling: Approximately 20 mg of Amorphous Compound 1 di(hydrogen sulfate) was added to 24×1.5 mL screw cap vials. Into each vial, the appropriate solvent system was added in 50 μL aliquots in an attempt to form slurries at 40° C. When the addition was completed, the samples were temperature-cycled between 40° C. and 5° C., using 0.1° C./min ramp and 1 hr hold between steps. After about 24 hours of cycling, anti-solvent addition at 40° C. was carried out on samples that were clear solutions. Temperature cycling was continued for all samples for a total of 48 hours. After 48 hours of cycling, any solids present in the samples were isolated via centrifugation and analyzed damp by XRPD to assess the polymorphic form.
Evaporation: Solutions of Amorphous Compound 1 di(hydrogen sulfate) were prepared in different solvent systems. […] The solutions were then left open to allow the solvents to evaporate at ambient. Solids observed post-evaporation were analyzed by XRPD.
Crash Cooling: Solutions of Amorphous Compound 1 di(hydrogen sulfate) were prepared in different solvent systems. […] The solutions were placed in a refrigerator to crash-cool the samples to about 5° C. for 48 hours. Solids observed at this point were analyzed by XRPD. The rest of the samples where no solids were observed were placed in a freezer to allow the samples to crash-cool further to about −20° C. After about 48 hours in the freezer, samples with solids were analyzed by XRPD. For samples where solids were still not observed, anti-solvent addition was carried out at 5° C., and the samples returned to the freezer. After 4 days in the freezer post-ASA, any solids present were analyzed by XRPD.
Solvent Drop Grinding: 15-20 mg of Amorphous Compound 1 di(hydrogen sulfate) was added to 24×2 mL bead mill tubes. Into each tube, 5 μL of the appropriate solvent system was added at ambient. Two small stainless-steel beads were placed in each tube, and the samples were milled using the following program: (1) Speed=5000 rpm; (2) Cycle=10×90 s; (3) Pause=10 s; (4) Repeat=duplicate. For samples where dissolution was suspected during the milling, additional amorphous material was added, and the milling program repeated. When the milling program was completed, the residual solids were analyzed by XRPD.
Anti-solvent Addition: 20-25 mg of Amorphous Compound 1 di(hydrogen sulfate) was added to 24×1.5 mL screw cap vials. Into each vial, 100 μL of the appropriate solvent system was added at 25° C. to form solutions. Where complete dissolution was not observed, an additional 400 μL of solvent was added and the samples were stirred at 50° C. to allow further dissolution. The mother liquors of these samples were needle-filtered into a new set of vials. To all the solutions, anti-solvent addition was carried out at 25° C. Where sufficient precipitation was observed post-ASA, these were isolated and analyzed by XRPD. Where thin slurries or clear solutions were observed post-ASA, these were cooled to 5° C. at 0.1° C./min and stirred at 5° C. for ca 18 h. Any solids present were isolated and analyzed by XRPD.
Reactive Crystallization: 15-20 mg of Compound 1 was added to 18×1.5 mL screw cap vials. Into each vial, 100 μL of the appropriate solvent system was added at 40° C. 2.05 mole equiv. of H2SO4 was also added to the vials as solutions in 100 μL of the respective solvent systems. The samples were stirred at 40° C. for another approximately 30 mins, cooled to 5° C. at 0.1° C./min and left stirring at 5° C. for about 18 h. […]

## COc1cc(C(=O)O[C@@H]2CCCOc3cc(cc(OC)c3OC)C(=O)NCCCN3CCCN(CC2)CC3)cc(OC)c1OC [Compound 1 di(hydrogen sulfate)]
1,4-Dioxane
  XRPD (Damp) Evaporation: 2, PC
  XRPD (Damp) Temp cycling: 2, PC
  XRPD (Dried) Anti-solvent addition: Am
  XRPD (Dried) Evaporation: 2, PC
  XRPD (Dried) Solvent drop grinding: Am
  XRPD (Dried) Temp cycling: 2, PC
1-Propanol
  XRPD (Damp) Anti-solvent addition: 2, PC
  XRPD (Damp) Solvent drop grinding: 2, PC
  XRPD (Dried) Anti-solvent addition: 2, PC
  XRPD (Dried) Temp cycling: Am
2-Methyl THF
  XRPD (Damp) Evaporation: 2, PC
  XRPD (Dried) Anti-solvent addition: Am
  XRPD (Dried) Evaporation: 2, PC
  XRPD (Dried) Solvent drop grinding: Am
  XRPD (Dried) Temp cycling: Am
2-Propanol
  XRPD (Damp) Evaporation: 2, PC
  XRPD (Dried) Anti-solvent addition: Am
  XRPD (Dried) Reactive cryst.: Am
  XRPD (Dried) Temp cycling: Am
2-propanol:water (50:50% v/v)
  XRPD (Damp) Evaporation: 2, PC
  XRPD (Dried) Evaporation: 2, PC
2-propanol:water (75:25% v/v)
  XRPD (Damp) Crash cooling: 2, PO
  XRPD (Damp) Reactive cryst.: 2, PC
  XRPD (Dried) Crash cooling: 2, PO
Acetone
  XRPD (Damp) Evaporation: 2, PC
  XRPD (Damp) Temp cycling: 2, PC
  XRPD (Dried) Anti-solvent addition: Am
  XRPD (Dried) Evaporation: 2, PC
  XRPD (Dried) Solvent drop grinding: Am
  XRPD (Dried) Temp cycling: 2, PC
Acetonitrile
  XRPD (Damp) Evaporation: 6, PC
  XRPD (Dried) Evaporation: 6+, PC
DCM
  XRPD (Dried) Solvent drop grinding: Am
DMF
  XRPD (Dried) Anti-solvent addition: Am
  XRPD (Dried) Solvent drop grinding: Am
DMSO
  XRPD (Dried) Anti-solvent addition: Am
  XRPD (Dried) Solvent drop grinding: Am
Ethanol:water (90:10% v/v)
  XRPD (Dried) Evaporation: 2, PC
Ethyl Acetate
  XRPD (Dried) Reactive cryst.: Am
  XRPD (Dried) Solvent drop grinding: Am
  XRPD (Dried) Temp cycling: Am
Isopropyl Acetate
  XRPD (Dried) Solvent drop grinding: Am
  XRPD (Dried) Temp cycling: Am
MEK
  XRPD (Damp) Temp cycling: 2, PC
  XRPD (Dried) Solvent drop grinding: Am
  XRPD (Dried) Temp cycling: 2, PC
Methanol
  XRPD (Damp) Solvent drop grinding: 2, PC
  XRPD (Dried) Reactive cryst.: Am
  XRPD (Dried) Solvent drop grinding: 2, PC
  XRPD (Dried) Temp cycling: Am
MiBK
  XRPD (Dried) Reactive cryst.: Am
  XRPD (Dried) Solvent drop grinding: Am
  XRPD (Dried) Temp cycling: Am
THF
  XRPD (Damp) Evaporation: 2, PC
  XRPD (Dried) Evaporation: 2, PC
  XRPD (Dried) Solvent drop grinding: Am
Toluene
  XRPD (Dried) Solvent drop grinding: Am
  XRPD (Dried) Temp cycling: Am
